Assay [1] concerns MDA-MB-231 human breast cancer cells. In words: In vitro cytotoxicity MTT assay, non-GRP expressing cells. The assay is classed as cell-based. As to conditions: MDA-MB231 cells; for IC50: Homo sapiens, MDA-MB-231. How it is done:
(§1) Cell culture: PC-3 human prostate and MDA-MB231 human breast carcinoma cells (ATCC, USA) were grown in RPMI 1640 medium (obtained from Gibco BRL, Grand Island, N.Y.) supplemented with 4.5 g/L D-glucose, 25 mM Hepes, 0.11 g/L sodium pyruvate, 1.5 g/L sodiumbicarbonate, 2 mM L-glutamine, 10% heat-inactivated fetal bovine serum (Atlanta Biologicals, USA) and 1% penicillin/streptomycin antibitiotic solution. Cells were cultured in a humidified atmosphere of 95% air and 5% CO2 at 37° C. (Thermo Scientific, USA), with the medium changed every other day. The cells were adherent in monolayers and when confluent were harvested from the cell culture flasks with trypsin—EDTA (Invitrogen) and seeded further apart.
In vitro Cytotoxicity Assay: In vitro cytotoxicity evaluation of NP1-DOX and NP2-DOX with respective controls such as NP1, NP2, free doxorubicin was performed on GRP expressing and non-expressing cancer cells, PC3 and MDA-MB-231, respectively. The cytotoxicity evaluation was performed in triplicates and the protocol was followed as described by the manufacturer. Briefly, 1×10^5 ml^−1 cells at the exponential growth phase were placed in a flat bottom 96-well polystyrene-coated plate and were incubated for 12 hour in a CO2 incubator at 5% CO2 and 37° C. A series of concentrations ranging from 0 to 10 ug/mL (0, 0.31, 0.625, 1.25, 2.5, 5.0 and 10 μg/mL) of NP1-Dox and NP2-Dox was prepared in the medium. Each concentration was added to the plate in quadruplets. After 24 hour incubation, 10 μL per well MTT (as received from the manufacturer, Promega Corporation, USA) was added and kept for 4 hours, and the formazan crystals so formed were dissolved in 100 μL detergent/solubilizing buffer. The plates were kept for 2 hours in dark at 25° C. to dissolve all crystals, and the intensity of developed color was measured by micro plate reader (Epoch, BioTek, USA) operating at 570 nm wavelength. Wells with complete medium, nanoparticles, and MTT, but without cells, were used as blanks. Untreated cells were considered 100% viable. […]

For assay [2], the system named is PC3 human prostate cancer cells. In words: In vitro cytotoxicity MTT assay, GRP expressing cells. Type of assay: cell-based. As to conditions: PC-3, 24 hour incubation, based on total weight of nanoconjugate, read-out: IC50, Nanoconjugate Conc. How it is done:
as §1
In vitro Cytotoxicity Assay: In vitro cytotoxicity evaluation of NP1-DOX and NP2-DOX with respective controls such as NP1, NP2, free doxorubicin was performed on GRP expressing and non-expressing cancer cells, PC3 and MDA-MB-231, respectively. The cytotoxicity evaluation was performed in triplicates and the protocol was followed as described by the manufacturer. […] The plates were kept for 2 hours in dark at 25° C. to dissolve all crystals, and the intensity of developed color was measured by micro plate reader (Epoch, BioTek, USA) operating at 570 nm wavelength. […]

In brackets after ≈: the same amount, converted by molar mass. Read-outs that look alike come from different tables or passages of the source.

With `COc1cccc2c1C(=O)c1c(O)c3c(c(O)c1C2=O)C[C@@](O)(C(=O)CO)C[C@@H]3O[C@H]1C[C@H](N)[C@H](O)[C@H](C)O1` [Doxorubicin], the half-maximal inhibitory concentration (IC50) in assay [1] (24 hour incubation, MTT, based on total weight of nanoconjugate, read-out: IC50, Nanoconjugate Conc.) was above 10 µg/mL; in assay [1] (in terms of doxorubicin loaded (0.53 μg/mg NP1-DOX, 0.3 μg/mg NP2-DOX), read-out: IC50, Doxorubicin Conc.), above 10 µg/mL; in assay [2], 9.5 µg/mL (≈ 17.5 µM). The “IC50, Nanoconjugate Conc.” value in assay [1] (24 hour incubation, MTT, based on total weight of nanoconjugate) is above 10 µg/mL.

The values above are taken from patent US20210015944A1, “Targeted Doxorubicin-Gold Nanocojugates for Tumor Therapy” (The Curators of the University of Missouri, priority 2017, published 2021).
